Consider 13 compounds from US11028087B2, “2,6-disubstituted-9-cyclopentyl-9H-purines, use thereof as medicaments, and pharmaceutical compositions” (UNIVERZITA PALACKEHO V OLOMOUCI, priority 2017, dated 2021).

Assay [1] has as its system H1703 (non-small cell lung carcinoma, PDGFRA amplification). The assay can be described thus: Calcein AM cytotoxicity assay. Format: cell-based. To be noted: Homo sapiens, NCI-H1703, 72 h, three days. A digest of the protocol: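 Membrane-integrity cytotoxicity readout. Seeding, then next-day dosing at various concentrations (triplicates), then three days' incubation at 37° C in 5% CO2, then 1 h with Calcein AM (final 1 μg/ml) and green fluorescence measurement.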

Assay [2] deals with Kasumi-1 (acute myeloid leukemia, KIT mutation Asn822Lys). The assay can be described thus: Calcein AM cytotoxicity assay. It is filed as cell-based. To be noted: Homo sapiens, 72 h; Kasumi-1; Calcein AM, three days; read-out: EC50 values (μM) Kasumi-1. The procedure, abridged:
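Kasumi-1 cells were grown in RPMI-1640 + 15% FBS, other lines at 37° C., 5% CO2, and seeded the day before compound addition in triplicates at various concentrations. After 3 days, viability was read with Calcein AM (1 μg/ml final, 1 h) as live-cell fluorescence at ex 485/em 538 nm.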

A further assay relates to HL60. The assay can be described thus: Calcein AM cytotoxicity assay. It is filed as cell-based. To be noted: Homo sapiens, HL-60, 72 h, three days.
A further assay deals with T1, CDK1/Cyclin B (Homo sapiens, UniProt P06493).
T1 construct: made in house; host or cells: Sf9 insect cells, baculoviral infection
T1 sequence (P06493 whole entry, species assumed): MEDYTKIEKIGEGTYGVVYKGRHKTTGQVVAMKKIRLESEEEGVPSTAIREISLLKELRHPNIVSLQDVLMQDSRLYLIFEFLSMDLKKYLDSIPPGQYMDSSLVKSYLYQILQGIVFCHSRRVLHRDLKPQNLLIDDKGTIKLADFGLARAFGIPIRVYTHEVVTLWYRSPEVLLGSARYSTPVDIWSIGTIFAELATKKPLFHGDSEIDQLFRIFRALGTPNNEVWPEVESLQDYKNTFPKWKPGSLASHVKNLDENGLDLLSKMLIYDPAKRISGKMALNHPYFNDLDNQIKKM
T1 sequence (P14635 whole entry partner, species assumed): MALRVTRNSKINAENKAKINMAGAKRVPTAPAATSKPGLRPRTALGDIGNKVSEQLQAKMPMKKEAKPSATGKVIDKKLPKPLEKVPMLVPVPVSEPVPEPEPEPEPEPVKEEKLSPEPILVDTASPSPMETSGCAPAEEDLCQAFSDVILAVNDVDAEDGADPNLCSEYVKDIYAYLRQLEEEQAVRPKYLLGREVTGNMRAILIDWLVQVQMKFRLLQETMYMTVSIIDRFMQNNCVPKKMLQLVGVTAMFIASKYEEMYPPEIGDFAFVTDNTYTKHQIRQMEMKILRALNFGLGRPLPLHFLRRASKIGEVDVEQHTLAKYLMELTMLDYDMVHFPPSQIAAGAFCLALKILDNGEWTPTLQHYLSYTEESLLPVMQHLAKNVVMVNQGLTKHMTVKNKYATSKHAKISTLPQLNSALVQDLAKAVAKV
The assay can be described thus: Kinase inhibition assay with [γ-33P]ATP. Format: biochemical. To be noted: histone H1, 15 μM ATP. A digest of the protocol:
(§1)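 Radiometric [γ-33P]ATP assay in HEPES pH 7.5 with Mg2+/Mn2+: CDK1/Cyclin B (Sf9-expressed) and purchased CDK5/p35 with 1 mg/mL histone H1 at 15 and 0.15 μM ATP respectively; FLT3 WT and FLT3-ITD with AGLT substrate at 1 μM ATP. Reactions stopped with H3PO4, spotted onto phosphocellulose and washed.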

The target of another assay is T2, CDK5/p35 (Homo sapiens, UniProt Q00535).
T2 construct: purchased ProQinase GmbH
T2 sequence (Q00535 whole entry): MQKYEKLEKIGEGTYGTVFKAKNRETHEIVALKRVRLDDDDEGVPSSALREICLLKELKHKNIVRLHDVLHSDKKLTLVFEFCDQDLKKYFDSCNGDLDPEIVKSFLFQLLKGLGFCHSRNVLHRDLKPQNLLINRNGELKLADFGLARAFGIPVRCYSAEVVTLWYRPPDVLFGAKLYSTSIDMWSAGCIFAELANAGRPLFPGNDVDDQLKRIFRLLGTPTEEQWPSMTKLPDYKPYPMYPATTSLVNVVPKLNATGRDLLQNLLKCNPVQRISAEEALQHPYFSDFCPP
T2 sequence (Q15078 whole entry partner): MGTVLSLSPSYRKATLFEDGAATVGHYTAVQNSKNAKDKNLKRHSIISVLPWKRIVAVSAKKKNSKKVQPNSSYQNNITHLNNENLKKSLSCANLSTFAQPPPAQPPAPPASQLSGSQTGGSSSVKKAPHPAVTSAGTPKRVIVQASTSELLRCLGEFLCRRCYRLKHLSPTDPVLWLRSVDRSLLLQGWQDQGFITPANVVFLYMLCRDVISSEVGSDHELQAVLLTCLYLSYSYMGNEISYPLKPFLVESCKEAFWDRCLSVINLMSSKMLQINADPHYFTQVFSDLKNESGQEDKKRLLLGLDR
The assay can be described thus: Kinase inhibition assay with [γ-33P]ATP. It is filed as biochemical. To be noted: histone H1, 0.15 μM ATP. The procedure, abridged: as §1

The structures appear in SMILES notation.

In general, EC50 refers to the concentration needed to bring the measured effect to its halfway point. As to `NC1CCC(Nc2nc(Nc3ccc(N4CCOCC4)cc3)c3ncn(C4CCCC4)c3n2)CC1` (stereo not drawn) [Compound 1], the EC50 in assay [1] is 0.189 µM; in assay [2], 0.944 µM.

By IC50 is commonly meant the concentration that gives 50% inhibition. For `NC1CCC(Nc2nc(Nc3ccc(CN4CCNCC4)cc3)c3ncn(C4CCCC4)c3n2)CC1` (stereo not drawn) [Compound 2], the EC50 in assay [2] was 0.481 µM; with HL60, 3.51 µM. Moreover, the IC50 was found to be 0.045 µM at CDK1/Cyclin B and 0.065 µM at CDK5/p35.

Consider `CN1CCN(C(=O)c2ccc(Nc3nc(NC4CCC(N)CC4)nc4c3ncn4C3CCCC3)cc2)CC1` (stereo not drawn) [Compound 3], for which the EC50 is 1.23 µM in assay [2] and 1.29 µM with HL60. Moreover, the half-inhibitory concentration (IC50) against CDK1/Cyclin B was 0.034 µM; on CDK5/p35, 0.058 µM.

Regarding `CN1CC2(C1)CN(c1ccc(Nc3nc(NC4CCC(O)CC4)nc4c3ncn4C3CCCC3)cc1)C2` (stereo not drawn) [Compound 7], the IC50 at CDK1/Cyclin B was 0.013 µM; against CDK5/p35 it was 0.03 µM.

Turning to `NCCNc1nc(Nc2ccc(CN3CCNCC3)cc2)c2ncn(C3CCCC3)c2n1` [Compound 14], the EC50 in assay [2] is 0.781 µM; with HL60, 2.68 µM. Besides, the half-maximal inhibitory concentration (IC50) stood at 0.037 µM at CDK1/Cyclin B and 0.065 µM on CDK5/p35.

As to `CN1CCN(C(=O)c2ccc(Nc3nc(NCCCCN)nc4c3ncn4C3CCCC3)cc2)CC1` [Compound 27], the results for the EC50 (in assay [2]; in the assay with HL60) were 0.637 µM and 0.989 µM, respectively.

Turning to `NCCCCNc1nc(Nc2ccc(N3CC4(COC4)C3)nc2)c2ncn(C3CCCC3)c2n1` [Compound 28], the EC50 in assay [1] is 0.214 µM; in assay [2] it was 0.839 µM.

For the compound `CN(C)CCNc1nc(Nc2ccc(CN3CCOCC3)nc2)c2ncn(C3CCCC3)c2n1` [Compound 172], the EC50 in assay [1] was 0.35 µM; in assay [2], 1.5 µM.

Take `NC1CCC(Nc2nc(Nc3ccc(N4CCCC4)cc3)c3ncn(C4CCCC4)c3n2)CC1` (stereo not drawn) [Compound 263]: the half-maximal effective concentration (EC50) is 0.569 µM in assay [2] and 3.93 µM in the assay on HL60. In addition, the IC50 on CDK1/Cyclin B is 0.082 µM; against CDK5/p35, 0.359 µM.

As for `NC1CCC(Nc2nc(Nc3ccc(CN4CCOCC4)cc3)c3ncn(C4CCCC4)c3n2)CC1` (stereo not drawn) [Compound 264], the IC50 at CDK5/p35 was determined as 0.034 µM.

Consider `NCCCCNc1nc(Nc2ccc(N3CCOCC3)cc2)c2ncn(C3CCCC3)c2n1` [Compound 265], for which, in assay [1], the EC50 is 0.482 µM.

With `CCN1CCN(c2ccc(Nc3nc(NCCCCN)nc4c3ncn4C3CCCC3)cc2)CC1` [Compound 266], the EC50 in assay [1] is 0.978 µM.

On to `NC1CCC(Nc2nc(Nc3ccc(N4CC5(COC5)C4)cc3)c3ncn(C4CCCC4)c3n2)CC1` (stereo not drawn) [Compound 272], for which the concentration giving a half-maximal response (EC50) was 0.412 µM in assay [1] and 0.773 µM in assay [2]. The figures for the IC50 against CDK1/Cyclin B and at CDK5/p35 were 0.094 µM and 0.059 µM, respectively.
